For the experiment, the target named is interaction between cTnC and switch peptide of cTnI (cTnISP) (Homo sapiens, UniProt P63316). The experiment in a line: Fluorescence polarization HTS and dose-response, cTnC/FAM-cTnISP. It counts as binding. (In general: Fluorescence polarisation rises when a labelled molecule tumbles more slowly, as on binding a larger partner.)
Setting [1] is: cTnISP primary screen, ENZO Screenwell library, single concentration 50 μmol/L.
Where [2] appears, read: cTnISP primary screen, LOPAC 1280 library, single concentration 50 μmol/L.
Setting [3] is: cTnISP primary screen, TOCRIScreen library, single concentration 50 μmol/L.

Several values for one entry are separate records, joined by “and”; a condition that tells them apart may be missing. Equal entries are not always repeated. Structures can show the parent of a compound that is named as a salt. Where two headings read alike, the source gives them in different places.

Method: Each compound was tested at a concentration of 50 μmol/L and 10 μmol/L for the cTnISP and cTnIAR screen, respectively. Hits were defined as compounds that changed the average FP value more than five-times the standard deviation (SD) (Fig. 1d, red lines). Moreover, compounds that either increased or decreased the total fluorescence intensity (FI) more than five-times the SD were removed from further analysis, indicating either compound aggregation or unspecific interactions with the fluorophore or protein complex.
Libraries were reformatted from 96-well plates to Greiner 384-well black plates using a GILSON PipetMax. The plates were sealed with adhesive foil and stored at − 20 °C until further use. […] A total of 40 nL of 10 mmol/L compound stocks were transferred to each well using a Mosquito liquid handler system (final DMSO concentration of 0.1% (v/v)). The plates were incubated in the dark for 30 min at 25 °C, and the fluorescence polarization from each well was measured using a ClarioStar Plate reader with appropriate excitation and emission filter settings. Dose–response curves were constructed by serial dilution of compounds in DMSO and adding a fixed volume to a mixture of peptide and cTnC.
Fluorescence polarization dose–response and binding experiments were performed in Greiner 384-well black plates in assay buffer (20 mmol/L Tris–HCl pH 7, 100 mmol/L NaCl, 1 mmol/L CaCl2, 1 mmol/L DTT) at 25 °C.

As for `O=C(c1ccc(OCCN2CCCCC2)cc1)c1c(-c2ccc(O)cc2)sc2cc(O)ccc12` [Raloxifene.HCl], the “FP (mP)” value under setting [1] is given as 76.9 mP; the “FP (mP)” value under setting [2] is 85.5 mP; the “FP (mP)” value (cTnISP primary screen, TOCRIScreen library, single concentration 50 μmol/L, listed as Raloxifene hydrochloride) is 87.9 mP and 82.1 mP.
Take `COC(=O)[C@H]1[C@H]2C[C@@H]3c4[nH]c5cc(OC)ccc5c4CCN3C[C@H]2C[C@@H](OC(=O)c2cc(OC)c(OC)c(OC)c2)[C@@H]1OC` [Reserpine]: under setting [1], the “FP (mP)” value is recorded as 88.4 mP.
Consider `CS(=O)(=O)O.Cn1cc(C2=C(c3cn(CCCSC(=N)N)c4ccccc34)C(=O)NC2=O)c2ccccc21` [Ro 31-8220 mesylate], for which the “FP (mP)” value under setting [3] came out at 57.9 mP.
On to `COc1cc(C(=O)NC2CCN(C)CC2)ccc1Nc1ncc2c(n1)N(C1CCCC1)CC(F)(F)C(=O)N2C` [Ro 3280], for which the “FP (mP)” value under setting [3] is recorded as 81.8 mP.
On the same count and under the same terms, the same measure for `O=C(Nc1cc(C(F)(F)F)cc(C(F)(F)F)c1)c1cnc(Cl)nc1C(F)(F)F` [SP 100030]: 70.3 mP; for `COc1ccc(CCN(C)CCCOc2ccc(S(=O)(=O)c3c(C(C)C)c4ccccc4n3C)cc2)cc1OC.O=C(O)C(=O)O` [SR 33805 oxalate]: 79 mP; for `Cc1[nH]c(/C=C2\C(=O)Nc3ccc(S(=O)(=O)N(C)c4cccc(Cl)c4)cc32)c(C)c1C(=O)N1CCN(C)CC1` [SU 11274]: 64.5 mP.
On to `Clc1ccc(C(Cn2ccnc2)OCc2csc3c(Cl)cccc23)c(Cl)c1` (centres unmarked) [Sertaconazole], for which, under setting [1], the “FP (mP)” value was determined as 88.2 mP.
Regarding `COc1cc(C(=O)NC2CCN(C)CC2)c(F)cc1Nc1ncc2c(n1)N(C1CCCC1)CC(F)(F)C(=O)N2C.Cl` [TAK 960 hydrochloride], under setting [3], the “FP (mP)” value is listed as 88 mP.
For the compound `Cc1cccc(C)c1-n1c(=O)c2cnc(Nc3ccc(N4CCN(C)CC4)cc3)nc2n2c3ccccc3nc12` [TC-S 7003], the “FP (mP)” value under setting [3] is given as 73.5 mP.
As for `O=[N+]([O-])c1ccc(CNc2nc(NCc3cccc(C(F)(F)F)c3)nc3nc[nH]c23)cc1` [TNP], the “FP (mP)” value was 90.9 mP.
As for `CC/C(=C(\c1ccccc1)c1ccc(OCCN(C)C)cc1)c1ccccc1` [Tamoxifen Citrate], the “FP (mP)” value under setting [1] worked out at 69.1 mP and the “FP (mP)” value under setting [3] came to 62.2 mP.
As to `[H]/N=C(/NCCCCC)N/N=C/c1c[nH]c2ccc(OC)cc12` [Tegaserod maleate], the “FP (mP)” value under setting [2] was determined as 78.4 mP.
Turning to `CS(=O)(=O)O.c1cc2c(cc1C1CCCCC1)c1c3n2CCNC3CCC1` (centres unmarked) [Tetrindole mesylate], the “FP (mP)” value under setting [3] is listed as 65 mP.
As for `CSc1ccc2c(c1)N(CCC1CCCCN1C)c1ccccc1S2` (centres unmarked) [Thioridazine.HCl], the “FP (mP)” value under setting [1] is recorded as 74.3 mP and the “FP (mP)” value under setting [2] was 89.4 mP.
On to `CN(C)CCOc1ccc(/C(=C(/CCCl)c2ccccc2)c2ccccc2)cc1` [Toremifene Base], for which, under setting [1], the “FP (mP)” value worked out at 60.7 mP.
For `CN1CCN(CCCN2c3ccccc3Sc3ccc(C(F)(F)F)cc32)CC1` [Trifluoperazine dihydrochloride], the “FP (mP)” value under setting [2] amounted to 84.5 mP.
In the case of `CCCc1cc(C)[nH]c(=O)c1CNC(=O)c1cc(-c2ccc(N3CCN(C(C)C)CC3)nc2)cc2c1cnn2C(C)C` [UNC 1999], the “FP (mP)” value under setting [3] was 80.5 mP.
The same measure, in the same setting: under `COc1ccc(N(C(=O)Oc2c(C)cccc2C)c2ccnc(Nc3ccc(N4CCN(C)CC4)cc3)n2)c(OC)c1` [WH-4-023] stands 56.3 mP.
Turning to `CCC(=O)Nc1cccc(Oc2nc(Nc3ccc(N4CCN(C)CC4)cc3OC)ncc2Cl)c1` [WZ4003], the “FP (mP)” value under setting [2] is listed as 86.4 mP.
Take `COc1cc(N2CCN(C)CC2)ccc1Nc1ncc2c(n1)N(C)c1ccccc1C(=O)N2` [XMD 8-87]: under setting [3], the “FP (mP)” value came out at 81.2 mP.
Take `COc1cc2c(Nc3ccc(NC(=O)c4ccccc4)cc3)ncnc2cc1OCCCN1CCOCC1` [ZM 447439]: under setting [3], the “FP (mP)” value is recorded as 89.2 mP.
`OCCN1CCN(CC/C=C2/c3ccccc3Sc3ccc(C(F)(F)F)cc32)CC1` [cis-(Z)-Flupenthixol dihydrochloride]: the “FP (mP)” value under setting [2] came out at 87.6 mP.
For (S)-(+)-Niguldipine hydrochloride, the “FP (mP)” value is recorded as 85.7 mP.
Take BMS-189453: the “FP (mP)” value under setting [2] was 88.8 mP.

These data come from publication PMC10063609, “Discovery of novel cardiac troponin activators using fluorescence polarization-based high throughput screening assays” (Scientific Reports, 2023).
